Patent US20230073777A1, “CYCLIC-AMP RESPONSE ELEMENT BINDING PROTEIN (CBP) AND/OR ADENOVIRAL E1A BINDING PROTEIN OF 300 KDA (P300) DEGRADATION COMPOUNDS AND METHODS OF USE” (CULLGEN (SHANGHAI), INC., priority 2019, published 2023)

Legend:
[1] = target: P300 (Homo sapiens, UniProt Q09472); test: Immunoblotting of P300 protein levels in LNCaP or 22RV1 cells; format: cell-based; parameters: LNCaP or 22RV1 cells that express CBP/P300 proteins were treated with GNE-781 or the bivalent compounds; endogenous in cells; host or cells: LNCaP (clone FGC) or 22RV1 cells; conditions: percentage of inhibition of p300 at 10 nM (Table 2); read-out: Degradation (10 nM)
Sequence of P300 (Q09472 whole entry): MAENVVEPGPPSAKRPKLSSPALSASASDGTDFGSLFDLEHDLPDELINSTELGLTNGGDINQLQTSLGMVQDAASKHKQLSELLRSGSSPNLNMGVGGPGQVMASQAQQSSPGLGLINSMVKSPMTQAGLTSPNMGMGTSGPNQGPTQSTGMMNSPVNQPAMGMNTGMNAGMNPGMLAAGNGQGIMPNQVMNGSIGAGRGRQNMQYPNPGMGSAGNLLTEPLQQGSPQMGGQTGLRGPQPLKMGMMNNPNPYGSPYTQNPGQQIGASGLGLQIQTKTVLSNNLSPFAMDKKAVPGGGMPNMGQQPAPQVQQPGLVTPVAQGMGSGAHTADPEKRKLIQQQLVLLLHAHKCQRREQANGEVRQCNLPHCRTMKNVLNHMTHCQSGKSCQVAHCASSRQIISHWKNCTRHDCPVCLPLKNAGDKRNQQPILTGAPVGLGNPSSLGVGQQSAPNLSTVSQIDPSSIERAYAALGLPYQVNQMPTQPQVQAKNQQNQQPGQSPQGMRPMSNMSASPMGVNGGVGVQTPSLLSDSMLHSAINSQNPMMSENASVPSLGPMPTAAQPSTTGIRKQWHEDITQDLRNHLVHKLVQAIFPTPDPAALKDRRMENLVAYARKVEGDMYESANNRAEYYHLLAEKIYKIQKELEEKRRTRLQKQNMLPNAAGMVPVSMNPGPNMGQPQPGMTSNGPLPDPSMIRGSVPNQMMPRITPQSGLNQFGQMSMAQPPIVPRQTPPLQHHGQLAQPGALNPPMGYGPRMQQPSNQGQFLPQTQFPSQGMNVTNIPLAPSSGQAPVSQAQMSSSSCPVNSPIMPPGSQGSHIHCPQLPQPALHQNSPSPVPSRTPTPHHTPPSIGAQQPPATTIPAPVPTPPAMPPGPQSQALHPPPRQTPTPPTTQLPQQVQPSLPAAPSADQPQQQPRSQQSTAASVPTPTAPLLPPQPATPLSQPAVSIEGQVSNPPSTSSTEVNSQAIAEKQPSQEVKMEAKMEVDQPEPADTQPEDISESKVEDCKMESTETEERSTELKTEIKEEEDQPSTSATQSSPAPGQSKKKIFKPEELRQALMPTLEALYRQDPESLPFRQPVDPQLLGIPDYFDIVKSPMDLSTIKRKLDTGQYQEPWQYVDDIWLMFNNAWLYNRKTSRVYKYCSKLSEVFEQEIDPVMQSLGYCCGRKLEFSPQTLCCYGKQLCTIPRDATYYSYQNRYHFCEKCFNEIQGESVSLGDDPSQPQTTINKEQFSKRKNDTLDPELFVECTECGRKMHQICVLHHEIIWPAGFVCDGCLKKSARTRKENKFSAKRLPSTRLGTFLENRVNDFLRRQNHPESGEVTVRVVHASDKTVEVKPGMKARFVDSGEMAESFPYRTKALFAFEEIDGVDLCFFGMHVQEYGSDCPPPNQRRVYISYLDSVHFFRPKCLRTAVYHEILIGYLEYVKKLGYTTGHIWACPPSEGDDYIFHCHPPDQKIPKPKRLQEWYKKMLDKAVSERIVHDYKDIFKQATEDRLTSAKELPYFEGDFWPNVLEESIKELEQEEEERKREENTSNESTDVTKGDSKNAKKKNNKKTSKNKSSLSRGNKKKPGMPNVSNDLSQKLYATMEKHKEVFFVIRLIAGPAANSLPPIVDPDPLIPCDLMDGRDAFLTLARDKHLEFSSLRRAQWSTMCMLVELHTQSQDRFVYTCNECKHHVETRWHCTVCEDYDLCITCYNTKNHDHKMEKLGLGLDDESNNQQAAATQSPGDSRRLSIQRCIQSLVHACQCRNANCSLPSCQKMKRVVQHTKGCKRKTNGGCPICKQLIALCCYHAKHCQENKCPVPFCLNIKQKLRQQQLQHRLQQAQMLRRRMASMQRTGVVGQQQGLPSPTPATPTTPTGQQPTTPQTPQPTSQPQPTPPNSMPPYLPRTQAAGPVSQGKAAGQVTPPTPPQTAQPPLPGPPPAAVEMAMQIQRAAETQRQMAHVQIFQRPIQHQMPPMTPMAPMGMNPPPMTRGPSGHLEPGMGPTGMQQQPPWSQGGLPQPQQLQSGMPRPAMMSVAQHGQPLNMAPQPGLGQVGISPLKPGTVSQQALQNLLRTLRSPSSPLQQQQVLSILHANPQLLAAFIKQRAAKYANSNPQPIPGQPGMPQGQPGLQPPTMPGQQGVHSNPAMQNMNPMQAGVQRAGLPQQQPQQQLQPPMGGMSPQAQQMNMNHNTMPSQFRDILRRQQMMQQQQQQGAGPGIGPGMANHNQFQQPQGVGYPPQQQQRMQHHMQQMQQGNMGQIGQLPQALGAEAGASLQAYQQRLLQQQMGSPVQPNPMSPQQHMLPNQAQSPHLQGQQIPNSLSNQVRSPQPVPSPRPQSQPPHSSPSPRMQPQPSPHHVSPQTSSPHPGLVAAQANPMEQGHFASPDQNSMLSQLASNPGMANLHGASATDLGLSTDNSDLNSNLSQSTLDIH
Method: Specific exemplary bivalent compounds were characterized in LNCaP or 22RV1 cells. LNCaP or 22RV1 cells that express CBP/P300 proteins were treated with GNE-781 or the bivalent compounds disclosed herein (P-001 to P-174) for indicated hours. Cells were collected, lysed and subject to immunoblotting using an antibody specific to P300 or CBP proteins. Tubulin or vinculin was included as the loading control. DMSO was used as the negative control.
Cultured cells or tissue chunks were washed with cold PBS once and lysed in cold RIPA buffer supplemented with protease inhibitors and phosphatase inhibitors (Beyotime Biotechnology). The solutions were then incubated at 4° C. for 30 minutes with gentle agitation to fully lyse cells. Cell lysates were centrifuged at 13,000 rpm for 10 minutes at 4° C. and pellets were discarded. Total protein concentrations in the lysates were determined by BCA assays (Beyotime Biotechnology). Cell lysates were mixed with Laemmli loading buffer to 1× and heated at 99° C. for 5 min. Proteins were resolved on SDS-PAGE and visualized by chemiluminescence. Images were taken by a ChemiDoc MP Imaging system (Bio-Rad). Protein bands were quantitated using the accompanied software provided by Bio-Rad.

[2] = system: LNCaP cells; test: LNCaP cell viability assay (CellTiter-Glo); format: cell-based; conditions: Homo sapiens, 72 h; LNCaP prostate cancer cell viability inhibition, 3 days, CellTiter-Glo (Table 2)
In short: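 LNCaP cells, 5000/well, exposed to compounds in 12-point 3-fold serial dilution (top 10 μM) for 3 days. Viability by CellTiter-Glo luminescence, normalized to untreated cells; IC50 by least-squares nonlinear regression.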

Compound	inhibition at 0.01 µM [1] [%]	IC50 [2] [nM]
CNC(=O)N1CCc2c(c(N3CCCc4cc(-c5cnn(CC(=O)NCCOCCNc6ccc7c(c6)C(=O)N(C6CCC(=O)NC6=O)C7=O)c5)c(C(F)F)cc43)nn2C2CCOCC2)C1 (stereo not shown) [P-028, 3-(7-(Difluoromethyl)-6-(1-(2-((2-(2-((2-(2,6-dioxopiperidin-3-yl)-1,3-dioxoisoindolin-5-yl)amino)ethoxy)ethyl)amino)-2-oxoethyl)-1H-pyrazol-4-yl)-3,4-dihydroquinolin-1(2H)-yl)-N-methyl-1-(tetrahydro-2H-pyran-4-yl)-1,4,6,7-tetrahydro-5H-pyrazolo[4,3-c]pyridine-5-carboxamide]	< 20	1040
CNC(=O)N1CCc2c(c(N3CCCc4cc(-c5cnn(CC(=O)NCCOCCOCCNc6ccc7c(c6)C(=O)N(C6CCC(=O)NC6=O)C7=O)c5)c(C(F)F)cc43)nn2C2CCOCC2)C1 (stereo not shown) [P-029]	< 20	578
CNC(=O)N1CCc2c(c(N3CCCc4cc(-c5cnn(CC(=O)NCCOCCOCCOCCNc6ccc7c(c6)C(=O)N(C6CCC(=O)NC6=O)C7=O)c5)c(C(F)F)cc43)nn2C2CCOCC2)C1 (stereo not shown) [P-030, 3-(7-(Difluoromethyl)-6-(1-(14-((2-(2,6-dioxopiperidin-3-yl)-1,3-dioxoisoindolin-5-yl)amino)-2-oxo-6,9,12-trioxa-3-azatetradecyl)-1H-pyrazol-4-yl)-3,4-dihydroquinolin-1(2H)-yl)-N-methyl-1-(tetrahydro-2H-pyran-4-yl)-1,4,6,7-tetrahydro-5H-pyrazolo[4,3-c]pyridine-5-carboxamide]	< 20	669
CNC(=O)N1CCc2c(c(N3CCCc4cc(-c5cnn(CC(=O)NCCOCCOCCOCCOCCNc6ccc7c(c6)C(=O)N(C6CCC(=O)NC6=O)C7=O)c5)c(C(F)F)cc43)nn2C2CCOCC2)C1 (stereo not shown) [P-031, 3-(7-(Difluoromethyl)-6-(1-(17-((2-(2,6-dioxopiperidin-3-yl)-1,3-dioxoisoindolin-5-yl)amino)-2-oxo-6,9,12,15-tetraoxa-3-azaheptadecyl)-1H-pyrazol-4-yl)-3,4-dihydroquinolin-1(2H)-yl)-N-methyl-1-(tetrahydro-2H-pyran-4-yl)-1,4,6,7-tetrahydro-5H-pyrazolo[4,3-c]pyridine-5-carboxamide]	< 20	566
CNC(=O)N1CCc2c(c(N3CCCc4cc(-c5cnn(CC(=O)NCCOCCOCCOCCOCCOCCNc6ccc7c(c6)C(=O)N(C6CCC(=O)NC6=O)C7=O)c5)c(C(F)F)cc43)nn2C2CCOCC2)C1 (stereo not shown) [P-032, 3-(7-(Difluoromethyl)-6-(1-(20-((2-(2,6-dioxopiperidin-3-yl)-1,3-dioxoisoindolin-5-yl)amino)-2-oxo-6,9,12,15,18-pentaoxa-3-azaicosyl)-1H-pyrazol-4-yl)-3,4-dihydroquinolin-1(2H)-yl)-N-methyl-1-(tetrahydro-2H-pyran-4-yl)-1,4,6,7-tetrahydro-5H-pyrazolo[4,3-c]pyridine-5-carboxamide]	< 20	601
CNC(=O)N1CCc2c(c(N3CCCc4cc(-c5cnn(CC(=O)NCCNc6cccc7c6C(=O)N(C6CCC(=O)NC6=O)C7=O)c5)c(C(F)F)cc43)nn2C2CCOCC2)C1 (stereo not shown) [P-037, 3-(7-(Difluoromethyl)-6-(1-(2-((2-((2-(2,6-dioxopiperidin-3-yl)-1,3-dioxoisoindolin-4-yl)amino)ethyl)amino)-2-oxoethyl)-1H-pyrazol-4-yl)-3,4-dihydroquinolin-1(2H)-yl)-N-methyl-1-(tetrahydro-2H-pyran-4-yl)-1,4,6,7-tetrahydro-5H-pyrazolo[4,3-c]pyridine-5-carboxamide]	< 20	> 10000
CNC(=O)N1CCc2c(c(N3CCCc4cc(-c5cnn(CC(=O)NCCCCNc6cccc7c6C(=O)N(C6CCC(=O)NC6=O)C7=O)c5)c(C(F)F)cc43)nn2C2CCOCC2)C1 (stereo not shown) [P-039, 3-(7-(Difluoromethyl)-6-(1-(2-((4-((2-(2,6-dioxopiperidin-3-yl)-1,3-dioxoisoindolin-4-yl)amino)butyl)amino)-2-oxoethyl)-1H-pyrazol-4-yl)-3,4-dihydroquinolin-1(2H)-yl)-N-methyl-1-(tetrahydro-2H-pyran-4-yl)-1,4,6,7-tetrahydro-5H-pyrazolo[4,3-c]pyridine-5-carboxamide]	< 20	397

Now those with a lower IC50 [2], led by results:

inhibition at 0.01 µM [1] [%]	IC50 [2] [nM]	Compound
> 80	3.2	CNC(=O)N1CCc2c(c(N3CCCc4cc(-c5cnn(CC(=O)NCCCCCCCNc6ccc7c(c6)C(=O)N(C6CCC(=O)NC6=O)C7=O)c5)c(C(F)F)cc43)nn2C2CCOCC2)C1 (stereo not shown) [P-026, 3-(7-(difluoromethyl)-6-(1-(2-((7-((2-(2,6-dioxopiperidin-3-yl)-1,3-dioxoisoindolin-5-yl)amino)heptyl)amino)-2-oxoethyl)-1H-pyrazol-4-yl)-3,4-dihydroquinolin-1(2H)-yl)-N-methyl-1-(tetrahydro-2H-pyran-4-yl)-1,4,6,7-tetrahydro-5H-pyrazolo[4,3-c]pyridine-5-carboxamide]
> 80	2.5	CNC(=O)N1CCc2c(c(N3CCCc4cc(-c5cnn(CC(=O)NCCCCCCCCNc6ccc7c(c6)C(=O)N(C6CCC(=O)NC6=O)C7=O)c5)c(C(F)F)cc43)nn2C2CCOCC2)C1 (stereo not shown) [P-027, 3-(7-(difluoromethyl)-6-(1-(2-((8-((2-(2,6-dioxopiperidin-3-yl)-1,3-dioxoisoindolin-5-yl)amino)octyl)amino)-2-oxoethyl)-1H-pyrazol-4-yl)-3,4-dihydroquinolin-1(2H)-yl)-N-methyl-1-(tetrahydro-2H-pyran-4-yl)-1,4,6,7-tetrahydro-5H-pyrazolo[4,3-c]pyridine-5-carboxamide]
> 80	4.8	CNC(=O)N1CCc2c(c(N3CCCc4cc(-c5cnn(C)c5)c(C(F)F)cc43)nn2C2CCN(C(=O)CCCCNc3cccc4c3C(=O)N(C3CCC(=O)NC3=O)C4=O)CC2)C1 (stereo not shown) [P-033, 3-(7-(difluoromethyl)-6-(1-methyl-1H-pyrazol-4-yl)-3,4-dihydroquinolin-1(2H)-yl)-1-(1-(5-((2-(2,6-dioxopiperidin-3-yl)-1,3-dioxoisoindolin-4-yl)amino)pentanoyl)piperidin-4-yl)-N-methyl-1,4,6,7-tetrahydro-5H-pyrazolo[4,3-c]pyridine-5-carboxamide]
> 80	0.7	CNC(=O)N1CCc2c(c(N3CCCc4cc(-c5cnn(C)c5)c(C(F)F)cc43)nn2C2CCN(C(=O)CCCCCCNc3cccc4c3C(=O)N(C3CCC(=O)NC3=O)C4=O)CC2)C1 (stereo not shown) [P-035, 3-(7-(difluoromethyl)-6-(1-methyl-1H-pyrazol-4-yl)-3,4-dihydroquinolin-1(2H)-yl)-1-(1-(7-((2-(2,6-dioxopiperidin-3-yl)-1,3-dioxoisoindolin-4-yl)amino)heptanoyl)piperidin-4-yl)-N-methyl-1,4,6,7-tetrahydro-5H-pyrazolo[4,3-c]pyridine-5-carboxamide]
> 80	0.8	CNC(=O)N1CCc2c(c(N3CCCc4cc(-c5cnn(C)c5)c(C(F)F)cc43)nn2C2CCN(C(=O)CCCCCCCNc3cccc4c3C(=O)N(C3CCC(=O)NC3=O)C4=O)CC2)C1 (stereo not shown) [P-036, 3-(7-(difluoromethyl)-6-(1-methyl-1H-pyrazol-4-yl)-3,4-dihydroquinolin-1(2H)-yl)-1-(1-(8-((2-(2,6-dioxopiperidin-3-yl)-1,3-dioxoisoindolin-4-yl)amino)octanoyl)piperidin-4-yl)-N-methyl-1,4,6,7-tetrahydro-5H-pyrazolo[4,3-c]pyridine-5-carboxamide]
< 20	385	CNC(=O)N1CCc2c(c(N3CCCc4cc(-c5cnn(CC(=O)NCCCNc6cccc7c6C(=O)N(C6CCC(=O)NC6=O)C7=O)c5)c(C(F)F)cc43)nn2C2CCOCC2)C1 (stereo not shown) [P-038, 3-(7-(Difluoromethyl)-6-(1-(2-((3-((2-(2,6-dioxopiperidin-3-yl)-1,3-dioxoisoindolin-4-yl)amino)propyl)amino)-2-oxoethyl)-1H-pyrazol-4-yl)-3,4-dihydroquinolin-1(2H)-yl)-N-methyl-1-(tetrahydro-2H-pyran-4-yl)-1,4,6,7-tetrahydro-5H-pyrazolo[4,3-c]pyridine-5-carboxamide]
< 20	96.4	CNC(=O)N1CCc2c(c(N3CCCc4cc(-c5cnn(CC(=O)NCCCCCNc6cccc7c6C(=O)N(C6CCC(=O)NC6=O)C7=O)c5)c(C(F)F)cc43)nn2C2CCOCC2)C1 (stereo not shown) [P-040, 3-(7-(Difluoromethyl)-6-(1-(2-((5-((2-(2,6-dioxopiperidin-3-yl)-1,3-dioxoisoindolin-4-yl)amino)pentyl)amino)-2-oxoethyl)-1H-pyrazol-4-yl)-3,4-dihydroquinolin-1(2H)-yl)-N-methyl-1-(tetrahydro-2H-pyran-4-yl)-1,4,6,7-tetrahydro-5H-pyrazolo[4,3-c]pyridine-5-carboxamide]
